Data published in article PMC9026109, “Enhancing the Anticancer Potential of Targeting Tumor-Associated Metalloenzymes via VEGFR Inhibition by New Triazolo[4,3-a]pyrimidinone Acyclo C-Nucleosides Multitarget Agents” (Molecules, 2022).
Values joined by “and” are separate entries in the source; they are usually repeats but may differ in a detail not shown here. Equal entries are not always repeated. Where two headings read alike, the source gives them in different places.

Key:
[1] = test system: normal human lung fibroblasts (Wi-38); test: MTT cytotoxicity screening on normal human lung fibroblasts (Wi-38); assay type: cell-based; details: for IC50: Homo sapiens; for IC50 / EC100: Wi-38, 72 h, MTT, mean ± SEM; for EC100: concentration at 100% cell viability
From the text: (§1) All derivatives were subjected to preliminary cytotoxicity screening on normal human lung fibroblasts (Wi-38) for selectivity assessment, followed by anticancer evaluation against MDA-MB231, Caco-2, and HepG-2 cells compared to the reference multitarget chemotherapeutic agent doxorubicin (Dox) by MTT assay. It is worth mentioning that previous studies reported that Dox inhibits the VEGF pathway which is the main anticancer target of the current study via various mechanisms.
(§2) The compounds’ cytotoxicity on normal and cancer cells was assayed by MTT as reported and detailed in the Supplementary Materials. […]
(§3) 2.1. Cytotoxicity screening on normal human lung fibroblasts (Wi-38)
(§4) The normal human lung fibroblast Wi-38 cell line was used to detect cytotoxicity of the studied compounds. Wi-38 cell line was cultured in DMEM medium-contained 10 % fetal bovine serum (FBS), seeded as 5x10^3 cells per well in 96-well cell culture plate, and incubated at 37 °C in 5 % CO2 incubator. After 24 h for cell attachment, serial concentrations (25-800 nM) of the synthetic compounds and currently used chemotherapy (doxorubicin) were incubated with Wi-38 cells for 72 h. Cell viability was assayed by the MTT method. Twenty microliters of 5 mg/ml MTT (Sigma, USA) were added to each well and the plate was incubated at 37 °C for 3 h. Then MTT solution was removed, 100 µl DMSO was added and the absorbance of each well was measured with a microplate reader (BMG LabTech, Germany) at 570 nm. Plot of Wi-38 cell […]
(§5) compounds (8 and 9) and the reference chemotherapy (Dox) is illustrated in figure 39-A. The effective […]
(§6) was estimated by the Graphpad Instat software. Additionally, morphology of Wi-38 before and after […]
microscope with a digital camera (Olympus, Japan). […]

[2] = test system: HepG-2; test: MTT anticancer activity, HepG-2; assay type: cell-based, human; details: for IC50: Homo sapiens, HepG2, HepG-2, 72 h, MTT, mean ± SEM; for SI: ratio IC50 on normal cells (Wi-38) / IC50 on HepG-2
From the text: as §1, §2, §3, §4, §5, §6
(§7) microscope with a digital camera (Olympus, Japan).
(§8) 2.2. Determination of the anticancer activity
The anticancer effect of the above-mentioned compounds, in comparison with doxorubicin (Dox), was assayed using three human cancer cell lines. Colon cancer cell line (Caco-2) was cultured in DMEM (Lonza, USA) contained with 10 % FBS while liver cancer cell line (HepG-2) and triple-negative breast cancer cell line (MDA- MB 231) were cultured in RPMI-1640 (Lonza, U SA) supplemented with 10 % FBS. […]
compounds were incubated with three cancer cell lines for 72 h at 37 °C in a 5 % CO2 incubator. MTT method was done as described above. Plots of cancer cells viability (%) and growth inhibition (%) of the studied […]
(§9) illustrated in figure 39. […]
(§10) The half-maximal inhibitory concentration (IC50) values were calculated using the Graphpad Instat […]
(§11) safest anticancer compounds were investigated using phase-contrast inverted microscope with a digital […]
(§12) ratio of IC50 value of normal cells to IC50 value of each studied cancer cell lines.
(§13) Figure S40. Plot of (A) Wi-38 cell viability (%) and (B-D) growth inhibition (%) of cancer cell lines with […]

[3] = test system: Caco-2; test: MTT anticancer activity, Caco-2; assay type: cell-based, human; details: for IC50: Homo sapiens, Caco-2, 72 h, MTT, mean ± SEM
From the text: as §1, §2, §3, §4, §5, §6, §7, §8
(§14) The anticancer effect of the above-mentioned compounds, in comparison with doxorubicin (Dox), was assayed using three human cancer cell lines. Colon cancer cell line (Caco-2) was cultured in DMEM (Lonza, USA) contained with 10 % FBS while liver cancer cell line (HepG-2) and triple-negative breast cancer cell line (MDA- MB 231) were cultured in RPMI-1640 (Lonza, U SA) supplemented with 10 % FBS. […] After 24h, serial concentrations (0.2-125 nM) of the tested compounds were incubated with three cancer cell lines for 72 h at 37 °C in a 5 % CO2 incubator. MTT method was done as described above. Plots of cancer cells viability (%) and growth inhibition (%) of the studied […]
as §9, §10, §11, §12, §13

[4] = test system: MDA-MB 231; test: MTT anticancer activity, MDA-MB 231; assay type: cell-based, human; details: for IC50: Homo sapiens, MDA-MB 231, 72 h, MTT, mean ± SEM; for SI: ratio IC50 on normal cells (Wi-38) / IC50 on MDA-MB 231
From the text: as §1, §2, §3, §4, §5, §6, §7, §8, §14, §9, §10, §11, §12, §13

[5] = molecular target: T1, MMP-2 (Homo sapiens, UniProt P08253); test: MMP-2 inhibitor screening kit (colorimetric); assay type: biochemical; details: in vitro MMP-2
T1 construct: read from the 'ab' catalogue number) ab139446
T1 sequence (P08253 110-446 limits assumed): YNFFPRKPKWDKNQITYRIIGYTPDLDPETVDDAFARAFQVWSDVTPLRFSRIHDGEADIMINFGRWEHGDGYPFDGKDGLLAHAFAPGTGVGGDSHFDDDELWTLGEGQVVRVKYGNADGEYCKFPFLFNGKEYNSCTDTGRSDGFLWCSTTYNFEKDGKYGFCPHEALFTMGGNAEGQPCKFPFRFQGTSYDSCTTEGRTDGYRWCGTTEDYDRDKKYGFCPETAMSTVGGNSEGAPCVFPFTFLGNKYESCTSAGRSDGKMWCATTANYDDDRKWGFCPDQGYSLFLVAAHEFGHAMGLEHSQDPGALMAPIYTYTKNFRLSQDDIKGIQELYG
Method: VEGFR-2 inhibition was detected by VEGFR-2 (KDR) Kinase Assay Kit-BPS Bioscience Corporation catalog # 40325 [107]. MMP-2 inhibitory activities were evaluated utilizing MMP-2 inhibitor screening kit (Colorimetric) catalog # ab139446 [108]. CA II inhibition assay was performed as reported. The protocols are detailed in the Supplementary Materials.
2.4. MMP-2 inhibitory activity assay […]
inhibitor screening kit (Colorimetric) catalog # ab139446 following the manufacturer’s instructions. The assay uses a thiopeptide as a chromogenic substrate. The MMP cleavage site peptide bond is replaced by a thioester bond in the thiopeptide. Hydrolysis of this bond by MMP-2 produces a sulfhydryl group, which reacts with Ellman’s reagent to form 2-nitr o-5-thiobenzoic acid that can be detected by its absorbance at 412 nm. The pr ocedure of MMP -2 inhibiti on assay is as foll owing
- Add test compounds and diluted enzyme solution to the microplate wells.
- Simultaneously establish the following control wells.
- Vehicle control contains MMP enzyme and vehicle used in delivering test compound (DMSO, concentration […]
- bring the total volume of all controls to 50 µL. Pre-incubate the plate for 10 min. at assay temperature to 37°C.
- Run the enzymatic reaction. […]
inhibited), which were calculated from dose-response curve obtained using eight tested concentrations of the inhibitor and carried out in duplicate. […]

[6] = ratio IC50 on normal cells (Wi-38) / IC50 on Caco-2

| IC50 [2] | IC50 [3] | IC50 [4] | melting point | Compound | IC50 [1] | EC100 [1] | SI [2] | SI [3, 6] | SI [4] | EC100 ([1]; listed as Dox) | morphological alteration of treated cells ([1]; Wi-38 at 30 nM, phase-contrast microscopy) | SI [3] | IC50 [5] |
| --- | --- | --- | --- | --- | --- | --- | --- | --- | --- | --- | --- | --- | --- |
| 3550 ± 35.5 nM | 128 ± 1.48 nM | 100 ± 2.99 nM | 215 to 216 °C | Cc1cc(=O)[nH]c(NN=C[C@H](O)[C@@H](O)[C@H](O)CO)n1 [Compound 2, D-Xylose-(6-methyl-4-oxo-2-pyrimidinyl)hydrazone] | 92.86 ± 0.35 nM | 46.35 ± 1.35 nM | 0.02 | 0.73 | 0.93 | – | – | – | – |
| – | – | – | 100 to 102 °C | CC(=O)OC[C@@H](OC(C)=O)[C@@H](OC(C)=O)[C@H](OC(C)=O)[C@H](OC(C)=O)[C@@H]1N(C(C)=O)N(C(C)=O)c2nc(C)cc(=O)n21 [Compound 9, N^1,N^2-Diacetyl-3-(1,2,3,4,5-penta-O-acetyl-D-manno-pentitol-1-yl)-5-methyl-7-oxo-1,2,4-triazolo[4,3-a]pyrimidine] | – | – | – | – | – | – | – | – | – |
| 22.5 ± 10 nM | 48.3 ± 30 nM | 10.6 ± 0.1 nM | – | COc1cccc2c1C(=O)c1c(O)c3c(c(O)c1C2=O)C[C@@](O)(C(=O)CO)C[C@@H]3O[C@H]1C[C@H](N)[C@H](O)[C@H](C)O1 [Doxorubicin, doxorubicin, reference compound] | 30 ± 1 nM | 11.50 ± 0.50 nM | 1.33 | – | 2.83 | 11.5 nM | morphological damage | 0.62 | – |
| – | – | – | – | COc1ccc(S(=O)(=O)N(CC(=O)NO)CC(C)C)cc1 [NNGH, N-Isobutyl-N-(4-methoxyphenylsulfonyl)glycyl hydroxamic acid] | – | – | – | – | – | – | – | – | 298 ± 20.2 nM |
| 3820 ± 126 nM | 111 ± 2.94 nM | 83.3 ± 3.06 nM | 213 to 214 °C | Cc1cc(=O)[nH]c(NN=C[C@H](O)[C@@H](O)[C@@H](O)[C@H](O)CO)n1 [Compound 5, D-Galactose-(6-methyl-4-oxo-2-pyrimidinyl)hydrazone] | 102 ± 1.25 nM | 48.16 ± 1.66 nM | 0.03 | 0.92 | 1.23 | – | – | – | – |
| 4628 ± 33 nM | 54.06 ± 0.47 nM | 46.3 ± 3.32 nM | 112 to 114 °C | CC(=O)OCC(OC(C)=O)C(OC(C)=O)C(OC(C)=O)C1N(C(C)=O)N(C(C)=O)c2nc(C)cc(=O)n21 [Compound 6, N^1,N^2-Diacetyl-3-(1,2,3,4-tetra-O-acetyl-D-xylo-tetritol-1-yl)-7-methyl-5-oxo-1,2,4-triazolo[4,3-a]pyrimidine] | 587.1 ± 4.48 nM | 353.7 ± 9.54 nM | 0.13 | 10.86 | 12.69 | – | – | – | – |
| 3730 ± 252 nM | 47.44 ± 0.38 nM | 39.99 ± 0.04 nM | 97 to 100 °C | CC(=O)OCC(OC(C)=O)C(OC(C)=O)C(OC(C)=O)C(OC(C)=O)C1N(C(C)=O)N(C(C)=O)c2nc(C)cc(=O)n21 [Compound 7, N^1,N^2-Diacetyl-3-(1,2,3,4,5-penta-O-acetyl-D-galacto-pentitol-1-yl)-7-methyl-5-oxo-1,2,4-triazolo[4,3-a]pyrimidine] | 872 ± 16.3 nM | 664.3 nM and 664.3 ± 26.60 nM | 0.23 | 18.39 | 21.82 | – | – | – | – |
| 3490 ± 182 nM | 96.49 ± 0.09 nM | 75.8 ± 1.25 nM | 240 to 242 °C | Cc1cc(=O)[nH]c(NN=C[C@H](O)[C@@H](O)[C@H](O)[C@H](O)CO)n1 [Compound 3, D-Glucose-(6-methyl-4-oxo-2-pyrimidinyl)hydrazone] | 176 ± 4.14 nM | 84.54 ± 1.00 nM | 0.05 | 1.83 | 2.33 | – | – | – | – |
| 4940 ± 101 nM | 108.1 ± 0.62 nM | 93.7 ± 2.69 nM | 220 to 222 °C | Cc1cc(=O)[nH]c(NN=C[C@@H](O)[C@@H](O)[C@H](O)[C@H](O)CO)n1 [Compound 4, D-Mannose-(6-methyl-4-oxo-2-pyrimidinyl)hydrazone] | 128 ± 2.96 nM | 64.61 ± 0.68 nM | 0.03 | 1.19 | 1.37 | – | – | – | – |
